In paper PMC5762908 (Scientific Reports, 2018):
Like-named read-outs stand apart in the source and are kept apart here.

How the values were obtained:
[1] = system: WT SV40 MEF (wild-type immortalized mouse embryonic fibroblast); test: Cytotoxic activity, alamar blue assay, WT SV40 MEF; type: cell-based; details: 72 h incubation
[2] = system: PBMC (human peripheral blood mononuclear cells); test: Cytotoxic activity, alamar blue assay, PBMC non-cancer cells; type: cell-based; details: 72 h incubation
[3] = system: advanced CRC; details: cited from earlier work
[4] = system: BAD KO SV40 MEF (BAD gene knockout immortalized mouse embryonic fibroblast); test: Cytotoxic activity, alamar blue assay, BAD KO SV40 MEF; type: cell-based; details: 72 h incubation
[5] = system: MRC-5 (human lung fibroblast); test: Cytotoxic activity, alamar blue assay, MRC-5 non-cancer cells; type: cell-based
[6] = system: calf thymus DNA (ctDNA); test: DNA intercalation assay, ethidium bromide displacement; type: binding; details: complex 5, 10 and 20 µM; doxorubicin 10 µM; data not shown
Procedure: DNA intercalation was assessed by examining the ability of the complex to displace ethidium bromide from ctDNA (Sigma-Aldrich Co.)[32]. The DNA intercalation assay was conducted in 96-well plate (100 µL) and contained 15 µg/mL ctDNA, 1.5 µM ethidium bromide and 5, 10 and 20 µM of complex in saline solution. The vehicle (0.1% DMSO) used for diluting the compound tested was used as the negative control. Doxorubicin (10 µM) was used as the positive control. Fluorescence was measured using excitation and emission wavelengths of 320 nm and 600 nm, respectively using the spectraMax Microplate Reader (Molecular Devices).

[7] = Homo sapiens, MRC5, 72 h incubation

| Compound | IC50 ([1]; Mus musculus, Fibroblast) [µM] | IC50 ([2]; Homo sapiens, PBMC) [µM] | Response rates ([3]; 5-FU as a monotherapy) | Response rates ([3]; 5-FU combined with irinotecan and oxaliplatin) | IC50 ([4]; Mus musculus, Fibroblast) [µM] | IC50 [5, 7] [µM] | Ethidium bromide fluorescence (displacement from ctDNA) [6] | IC50 [2] [µM] | IC50 ([5]; 72 h incubation) [µM] | IC50 [1] [µM] | IC50 [4] [µM] |
| --- | --- | --- | --- | --- | --- | --- | --- | --- | --- | --- | --- |
| O=c1[nH]cc(F)c(=O)[nH]1 [5-FU, 5-fluorouracil] | 1.7 | 78 | 10–15% | 40–50% | 7.3 | 57.9 |  |  |  |  |  |
| COc1cccc2c1C(=O)c1c(O)c3c(c(O)c1C2=O)C[C@@](O)(C(=O)CO)C[C@@H]3O[C@H]1C[C@H](N)[C@H](O)[C@H](C)O1 [DOX, Doxorubicin] | 0.03 | 5.1 |  |  | 0.4 | 1.6 | reduced the fluorescence intensity of ethidium bromide |  |  |  |  |
| O=C1[O][Pt]2([NH][C@@H]3CCCC[C@H]3[NH]2)[O]C1=O [OXA, oxaliplatin] |  |  |  |  |  |  |  | 12.4 | 1.4 |  |  |
| [Ru(5-FU)(PPh3)2(bipy)]PF6 [RU/5-FU] |  |  |  |  |  |  | did not decrease the ethidium bromide fluorescence | 5.7 | 9.5 | 1.9 | 1.8 |
